# Reference: patent US20220125803A1, “METHODS FOR THE TREATMENT OF PERIMENOPAUSE AND MENOPAUSE” (Praxis Precision Medicines, Inc., priority 2019, published 2022)
# How the values were obtained:
# [1] = Multiple escalating dose study, plasma pharmacokinetics, Cohorts 1-3; format: in vivo, human
# Experimental: Healthy subjects aged 18 to 55 years were treated with an oral suspension of Compound 1 to study the safety, tolerability, pharmacokinetics and pharmacodynamics of Compound 1 in healthy subjects.
# The study was a randomized, double-blind, placebo-controlled multiple escalating dose study comprised of 3 cohorts that each received an oral suspension. Each cohort consisted of two groups: one group treated with Compound 1 and another treated with placebo. In each cohort, the ratio of Compound 1-treated subjects to placebo-treated subjects was 3:1.
# The Compound 1-treated subjects of Cohort 1 were treated with 15.0 mg of Compound 1 once per day (QD). The Compound 1-treated subjects of Cohort 2 were treated with 30.0 mg of Compound 1 QD. The Compound 1-treated subjects of Cohort 3 were treated with 60.0 mg of Compound 1 QD.
# Patients in each cohort were treated with Compound 1 for 14 consecutive days, unless dosing was halted by the Safety Review Committee (SRC). The dosing of subjects in each of the cohorts was staggered with the decision to dose escalate based on SRC review of a minimum of 14 days of observation of safety and tolerability data and review of the available plasma PK data from the preceding cohort(s). Thus, dose escalation was predicated on tolerability of the prior cohorts.
# Compound 1 was administered under fasted conditions (no food or drink, except water, for at least 10 hours prior to dosing). Immediately after administration of Compound 1, the subject was be administered 240 mL water. No additional fluid intake was allowed until 1 hour after Compound 1 administration.
# Cohort 1 subjects received a single 15.0 mg dose of a Compound 1 suspension on the morning of Days 1-14. Cohort 2 subjects received a single 30.0 mg dose of a Compound 1 suspension on the morning of Days 1-14. Cohort 3 subjects received a single 60.0 mg dose of a Compound 1 suspension on the morning of Days 1-14. For all cohorts, the last treatment was administered on the morning of Day 14.
# Plasma samples were analyzed to determine Compound 1 concentrations using a validated assay method. Pharmacokinetic variables (including but not limited to Cmax, Tmax and AUC(0-last)) were calculated using non-compartmental analysis. PK parameters for Compound 1 were derived from the plasma concentration data using non-compartmental analysis with Phoenix™ WinNonlin® v 8.0 (Pharsight Corporation, USA).
# Blood (Cohorts 1-3): For each cohort, blood samples were collected on Days 1, 2, 3, 4, 5, 6 and 14 at the following time points: Day 1 at pre-dose (0 hour), 0.25, 0.5, 0.75, 1, 1.5, 2, 2.5, 3, 4, 6, 8, 12, 16 h post-dose; Day 2 at pre-dose (24 h), Day 3 at pre-dose (48 h), Day 4 at pre-dose (72 h), Day 5 at pre-dose (96 h), Day 6 at pre-dose (120 h); Day 14 at pre-dose 0.25, 0.5, 0.75, 1, 1.5, 2, 2.5, 3, 4, 6, 8, 12, 16, 24, 36, 48, and 72 hours. Trough level blood samples were collected on Days 2, 3, 4, 5, 6 and 14, prior to the morning dose administrations.
# Descriptive statistics were calculated for plasma and urine PK parameter and concentration data, and summarized by study day and time point. Arithmetic means, coefficient of variation (CV), standard deviation, median, minimum, and maximum values, and number of observations were calculated for all PK parameters and trough concentration data. Except for Tmax, the geometric mean, geometric standard deviation, and geometric CV were provided for all PK parameter and concentration data. […]
# [2] = test system: women that are perimenopausal with depression; experiment: Open label trial, Hamilton Depression Rating Scale (HAM-D); format: in vivo, human; details: one patient
# Experimental: (§1) The study is a two-week open label trial in women that are perimenopausal with depression during which patients were treated with an oral formulation of Compound 1 in adjunct to standard antidepressant treatment.
# […] Participants were administered daily doses of Compound 1 (up to 120 mg qPM, including 15 mg once a day, 20 mg once a day, 25 mg once a day, 30 mg once a day, 35 mg once a day, 40 mg once a day, 45 mg once a day, 50 mg once a day, 55 mg once a day, 60 mg once a day, 65 mg once a day, 70 mg once a day, 75 mg once a day, 80 mg once a day, 85 mg once a day, 90 mg once a day, 95 mg once a day, 100 mg once a day, 105 mg once a day, 110 mg once a day, 115 mg once a day and 120 mg once a day) for 14 days.
# The Primary efficacy outcome was measured by the Hamilton Depression Rating Scale (HAM-D). The HAM-D was administered at baseline (Day 1, predose), Day 4, Day 8, Day 15, Day 21 and Day 28.
# HAM-D Response was defined as a reduction from baseline of >50% in total HAM-D score. HAM-D remission was defined as a total HAM-D score of <7.
# [3] = test system: women that are perimenopausal with depression; experiment: Open label trial, Perimenopausal Depression Questionnaire (Meno-D); format: in vivo, human; details: one patient, 60 mg once a day
# Source text: The Meno-D is a perimenopausal depression rating scale consisting of 12 items, each items is scored on a 5-point scale (ranging from 0 to 4) (Kulkami J, et al., Development and validation of a new rating scale for perimenopausal depression-the Meno-D. Transl Psychiatry. 2018 Jun. 28; 8(1):123). The total score of the 12 items ranges from […] with higher scores indicating more severe perimenopausal depression. The MENO-D has five factors (or domains): Self (four items), Sexual (two items), Somatic (two items), Cognitive (two items) and Sleep (two items). MENO-D assesses the patient's self-esteem, sense of isolation, paranoid thinking, anxiety, interest in socialising, changes in libido and sexual activity, any decrease in energy, physical pain, changes in weight, subjective changes in memory and concentration, and increases in irritability and/or sleep disturbances.
# as §1
# (§2) Treatment Period: The treatment period was 14 days in duration. Participants were administered daily doses of Compound 1 (up to 120 mg qPM, including 15 mg once a day, 20 mg once a day, 25 mg once a day, 30 mg once a day, 35 mg once a day, 40 mg once a day, 45 mg once a day, 50 mg once a day, 55 mg once a day, 60 mg once a day, 65 mg once a day, 70 mg once a day, 75 mg once a day, 80 mg once a day, 85 mg once a day, 90 mg once a day, 95 mg once a day, 100 mg once a day, 105 mg once a day, 110 mg once a day, 115 mg once a day and 120 mg once a day) for 14 days.
# (§3) Secondary outcome measure was by the Clinical Global Impression (CGI), DSM-V MDD Anxious Distress Specifier, the Hamilton Anxiety Rating Scale (HAM-A), the Montgomery-Asberg Depression Rating Scale (MADRS), the Perimenopausal Depression Questionnaire (Meno-D), the Pittsburgh Sleep Quality Index (PSQI), the revised Sabbastberg Sexual Function Scale, the Symptoms of Depression Questionnaire (SDQ), and a vasomotor symptom diary.
# [4] = test system: women that are perimenopausal with depression; experiment: Open label trial, vasomotor symptom diary (hot flushes); format: in vivo, human; details: one patient, 60 mg once a day, by Day 4 (baseline 9 per day)
# Experimental: as §1, §2, §3
# [5] = test system: women that are perimenopausal with depression; experiment: Open label trial, safety/tolerability; format: in vivo, human; details: one patient, 60 mg dose once a day for 14 days
# Experimental: During the study, physical examination, vital signs, ECG, and clinical laboratory tests were conducted. The Modified Observers Assessment of Anesthesia and Sedation, (MOASS) and the Columbia Suicide were performed.
# [6] = human, in vivo, 30 mg
# Experimental: (§4) The Day 1 dose was administered after a minimum of 10 hour fasting. No additional fluid intake was allowed until 1 hour after drug administration. A standard meal was given at least 4 hours post-dose. The Day 5 dose was administered following a high-fat, high calorie meal. Participants remained at the clinical site for a total of 8 days to complete PK sampling after the second dose.
# (§5) Pharmacokinetic variables (including but not limited to Cmax, Tmax and AUC(0-last)) were calculated using non-compartmental analysis.
# [7] = Food Effect Cohort (Cohort 4), plasma pharmacokinetics fasted vs fed; details: Cohort 4, single 30 mg
# Experimental: as §4, §5
compound,measurement,setting,value
"COC[C@@]1(O)CC[C@@]2(C)[C@@H](CC[C@@H]3[C@@H]2CC[C@]2(C)[C@@H](C(=O)Cn4ccnc4)CC[C@@H]32)C1 [Compound 1, 3α-Hydroxy-3β-methoxymethyl-21-(1′-imidazolyl)-5α-pregnan-20-one]",accumulation factor of the dosing interval (ratio of AUCDay14/AUCDay1),"[1]; Cohort 1, 15.0 mg QD",approximately 1.25
same,AUCinf,"[1]; Cohort 1, 15.0 mg QD, Day 14 steady state, Geo Mean",600.228 ng·h/mL
same,accumulation factor of the dosing interval (ratio of AUCDay14/AUCDay1),"[1]; Cohort 2, 30.0 mg QD",approximately 1.25
same,AUC0-tau,"[1]; human, in vivo, 15 mg",361.762 ng·h/mL
same,Cmax,"[1]; human, in vivo, 15 mg",56.016 ng/mL
same,HAM-D score,"[2]; 60 mg once a day for 14 days, Day 15 (baseline 28)",8
same,improvement in HAM-D score,"[2]; 60 mg once a day for 14 days, adjunct to fluoxetine, Day 8",48%
same,improvement in HAM-D score from baseline value,"[2]; 60 mg once a day for 14 days, adjunct to fluoxetine, Day 15",71%
same,HAM-D Remission criterion (total HAM-D score of <7),"[2]; 60 mg once a day, Day 15",nearly met the HAM-D Remission criterion
same,HAM-D Response criterion (reduction from baseline of >50%),"[2]; 60 mg once a day, Day 15",met the HAM-D Response criterion
same,improvement in MENO-D from baseline value,[3]; Day 8 (baseline 28),54%
same,MENO-D classification,[3]; Day 8 and Day 15,no longer met classification for perimenopausal depression requiring clinical attention
same,improvement in MENO-D factor Cognitive,[3]; Day 15,100%
same,improvement in MENO-D factor Self,[3]; Day 15,63%
same,improvement in MENO-D factor Sexual,[3]; Day 15,43%
same,improvement in MENO-D factor Sleep,[3]; Day 15,40%
same,improvement in MENO-D factor Somatic,[3]; Day 15,50%
same,improvement in MENO-D from baseline value,[3]; Day 15 (baseline 28),57%
same,decrease in frequency of hot flushes,[4],66%
same,adverse event reported,[5],mild epigastric pain after dosing
same,tolerability,[5],well-tolerated
same,"Tmax, fasting compared to fed conditions",[6],tendency for a shorter Tmax
same,"t1/2, fasted versus fed",[7],similar
"CNCCC(Oc1ccc(C(F)(F)F)cc1)c1ccccc1 (stereo not drawn) [fluoxetine, reference compound]",clinical response of depression symptoms (HAM-D score and clinical evaluation),"[2]; 15 mg daily taken for 8 months, before Compound 1",had not demonstrated a sufficient clinical response
